Here are results for 21 compounds from patent publication EP4644383A1 (Jiangsu Yahong Meditech Co., Ltd., priority 2022, dated 2024).

For one assay, the target named is T1, FGFR3 (Homo sapiens, UniProt P22607).
T1 construct: FGFR3's cytoplasmic domain [436-806 (terminal) amino acids]; purchased Carna 08-135
The assay is described as follows: FGFR3 kinase activity inhibition assay (LanthaScreen TR-FRET). Type of assay: biochemical. The settings on record: for Selectivity (X) FGFR1/FGFR3: ratio of IC50 FGFR1/FGFR3, selectivity towards FGFR3. An outline of the steps:
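Read-out is TR-FRET, with the 520 nm/495 nm emission ratio normalised to DMSO (max) and enzyme-free (min) controls. Enzyme was the FGFR3 cytoplasmic domain, residues 436-806. EDTA (10 mM) stopped the reaction, followed by 60 min at 22 °C before reading.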

The next assay concerns the target T2, FGFR1 (Homo sapiens, UniProt P11362).
T2 construct: cytoplasmic domain [398-822 (terminal) amino acids]; purchased Carna 08-133
The assay is described as follows: FGFR1 kinase activity inhibition assay (LanthaScreen TR-FRET). The class given is biochemical. An outline of the steps: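 Emission ratio 520 nm/495 nm by TR-FRET after stopping reaction with 10 mM EDTA and 60 min incubation at 22°C. Inhibition normalized between no-enzyme (min) and DMSO (max) controls, then fitted to a four-parameter curve (Top, Bottom, HillSlope).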
Background: TR-FRET usually uses a lanthanide donor and a delayed reading to cut background.

Where [1] appears, read: FGFR3 kinase, TR-FRET, read-out: IC50 (nM) FGFR3.
The mark [2] stands for this setting: FGFR1 kinase, TR-FRET, read-out: IC50 (nM) FGFR1.

Like-named read-outs stand apart in the source and are kept apart here.

As a reminder, the IC50 is the midpoint of a concentration-inhibition curve.

T1 sequence (P22607 436-806): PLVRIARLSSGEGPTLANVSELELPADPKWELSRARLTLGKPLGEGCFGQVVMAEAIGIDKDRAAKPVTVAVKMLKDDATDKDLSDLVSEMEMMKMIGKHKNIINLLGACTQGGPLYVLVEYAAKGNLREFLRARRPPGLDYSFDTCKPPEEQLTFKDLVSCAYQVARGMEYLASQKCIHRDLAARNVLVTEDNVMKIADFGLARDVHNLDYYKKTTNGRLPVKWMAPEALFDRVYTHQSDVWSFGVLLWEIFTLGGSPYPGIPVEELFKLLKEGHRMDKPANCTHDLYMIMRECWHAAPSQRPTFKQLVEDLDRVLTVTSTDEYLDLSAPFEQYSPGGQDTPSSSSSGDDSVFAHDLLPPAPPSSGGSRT
T2 sequence (P11362 398-822): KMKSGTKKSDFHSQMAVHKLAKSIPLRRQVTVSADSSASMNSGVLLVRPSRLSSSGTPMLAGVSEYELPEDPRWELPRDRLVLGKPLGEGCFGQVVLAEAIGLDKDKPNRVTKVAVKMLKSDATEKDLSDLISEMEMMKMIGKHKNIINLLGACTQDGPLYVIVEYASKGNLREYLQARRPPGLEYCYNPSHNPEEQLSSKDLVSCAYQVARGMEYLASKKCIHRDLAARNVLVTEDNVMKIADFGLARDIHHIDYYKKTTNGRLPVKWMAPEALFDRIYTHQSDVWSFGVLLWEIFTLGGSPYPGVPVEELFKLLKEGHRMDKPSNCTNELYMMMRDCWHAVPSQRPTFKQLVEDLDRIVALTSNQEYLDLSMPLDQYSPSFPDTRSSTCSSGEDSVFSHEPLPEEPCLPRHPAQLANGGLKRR

Turning to `CC(Oc1ccc2[nH]nc(-c3cnn(C4CN(C(N)=O)C4)c3)c2c1)c1cc(Cl)cc2nccnc12` (stereo not shown) [Example 169, 3-(4-(5-(1-(7-chloroquinoxalin-5-yl)ethoxy)-1H-indazol-3-yl)-1H-pyrazol-1-yl)aze tidine-1-carboxamide], the IC50 on FGFR3 (setting [1]) is 1 to 10 nM; at FGFR1 (setting [2]) it was 10 to 100 nM. Besides, the “Selectivity (X) FGFR1/FGFR3” value at FGFR3 is recorded as “A (A represents 1 ≤ multiple X<20)”.
`CC(Oc1ccc2[nH]nc(-c3cnn(C4CN(C(=O)CN)C4)c3)c2c1)c1cccc2nccnc12` (stereo not shown) [Example 175, 2-amino-1-(3-(4-(5-(1-(quinoxalin-5-yl)ethoxy)-1H-indazol-3-yl)-1-pyrazol-1-yl)azetidin-1-yl)ethan-1-one]: at FGFR3, the half-maximal inhibitory concentration (IC50) was < 1 nM and the “Selectivity (X) FGFR1/FGFR3” value is on record as “A (A represents 1 ≤ multiple X<20)”. On FGFR1, the IC50 is 1 to 10 nM.
For `CC(Oc1ccc2[nH]nc(-c3cnn(C)c3)c2c1)c1nccn2nccc12` (stereo not shown) [Example 176, 4-(1-((3-(1-methyl-1H-pyrazol-4-yl)-1H-indazol-5-yl)oxy)ethyl)py razolo[1,5-a]pyrazine], the values for the 50% inhibitory concentration (IC50) on FGFR3 (setting [1]) and at FGFR1 (setting [2]) were 1 to 10 nM and 10 to 100 nM, respectively. On FGFR3, the “Selectivity (X) FGFR1/FGFR3” value is listed as “A (A represents 1 ≤ multiple X<20)”.
Take `CC(Oc1ccc2[nH]nc(-c3cnn(C4CN(C(=N)N)C4)c3)c2c1)c1cccc2nccnc12` (stereo not shown) [Example 177, 3-(4-(5-(1-(quinoxalin-5-yl)ethoxy)-1H-indazol-3-yl)-1H-pyrazol-1-yl)azetidine-1-carboximidamide]: the half-inhibitory concentration (IC50) is 1 to 10 nM on FGFR3 (setting [1]) and 10 to 100 nM at FGFR1 (setting [2]). Further, on FGFR3, the “Selectivity (X) FGFR1/FGFR3” value is reported as “B (B represents 20 ≤ multiple X<50)”.
With `CC(Oc1ccc2[nH]nc(-c3cnn(C4CN(C(=O)N(C)C)C4)c3)c2c1)c1cccc2nccnc12` (stereo not shown) [Example 178, N,N-dimethyl-3-(4-(5-(1-(quinoxalin-5-yl)ethoxy)-1H-indazol-3-yl)-1H-pyrazol-1-yl)azetidine-1-carboxamide], the values for the IC50 on FGFR3 (setting [1]) and on FGFR1 (setting [2]) were < 1 nM and 1 to 10 nM, respectively. In addition, the “Selectivity (X) FGFR1/FGFR3” value at FGFR3 is given as “B (B represents 20 ≤ multiple X<50)”.
Take `CC(Oc1ccc2[nH]nc(-c3cnn(CCCS(N)(=O)=O)c3)c2c1)c1cccc2nccnc12` (stereo not shown) [Example 179, 3-(4-(5-(1-(quinoxalin-5-yl)ethoxy)-1H-indazol-3-yl)-1H-pyrazol-1-yl)propane-1-sulfonamide]: the IC50 at FGFR3 (setting [1]) was < 1 nM; at FGFR1 (setting [2]), 10 to 100 nM. Besides, the “Selectivity (X) FGFR1/FGFR3” value on FGFR3 is listed as “B (B represents 20 ≤ multiple X<50)”.
In the case of `CC(Oc1ccc2[nH]nc(-c3cnn(C4CN(C(=O)CC#N)C4)c3)c2c1)c1cccc2nccnc12` (stereo not shown) [Example 180, 3-oxo-3-(3-(4-(5-(1-(quinoxalin-5-yl)ethoxy)-1H-indazol-3-yl)-1H-pyrazol-1-yl)azetidin-1-yl)propionitrile], the concentration for half-maximal inhibition (IC50) on FGFR3 (setting [1]) and on FGFR1 (setting [2]) was 1 to 10 nM throughout. Also, the “Selectivity (X) FGFR1/FGFR3” value at FGFR3 is “A (A represents 1 ≤ multiple X<20)”.
With `CC(Oc1ccc2[nH]nc(-c3cnn(C)c3)c2c1)c1cccn2ncc(C#N)c12` (stereo not shown) [Example 186, 4-(1-((3-(1-methyl-1H-pyrazol-4-yl)-1H-indazol-5-yl)oxy)ethyl)py razolo[1,5-a]pyridine-3-carbonitrile], the IC50 on FGFR3 (setting [1]) is < 1 nM; on FGFR1 (setting [2]), 1 to 10 nM. Moreover, the “Selectivity (X) FGFR1/FGFR3” value at FGFR3 is “A (A represents 1 ≤ multiple X<20)”. In addition, the “Selectivity (X) FGFR4/FGFR3” value at FGFR3 (ratio of IC50 FGFR4/FGFR3, selectivity towards FGFR3) is given as “A (A represents 1 ≤ multiple X<20)”.
As for `Cc1cc(C(C)Oc2ccc3[nH]nc(-c4cnn(C5CN(C(=O)CO)C5)c4)c3c2)c2cccnc2c1` (stereo not shown) [Example 192, 2-hydroxy-1-(3-(4-(5-(1-(7-methylquinolin-5-yl)ethoxy)-1H-indazol-3-yl)-1-pyrazol-1-yl)azetidin-1-yl)ethan-1-one], the figures for the concentration for half-maximal inhibition (IC50) on FGFR3 (setting [1]) and on FGFR1 (setting [2]) were < 1 nM and 10 to 100 nM, respectively. Further, on FGFR3, the “Selectivity (X) FGFR1/FGFR3” value is “B (B represents 20 ≤ multiple X<50)”.
For the compound `CNCC(=O)N1CC(n2cc(-c3n[nH]c4ccc(OC(C)c5cccc6nccnc56)cc34)cn2)C1` (stereo not shown) [Example 193, 2-(methylamino)-1-(3-(4-(5-(1-(quinoxalin-5-yl)ethoxy)-1H-indazol-3-yl)-1H-pyrazol-1-yl)azetidin-1-yl)ethan-1-one], the figures for the IC50 on FGFR3 (setting [1]) and on FGFR1 (setting [2]) were < 1 nM and 1 to 10 nM, respectively. Further, the “Selectivity (X) FGFR1/FGFR3” value at FGFR3 was “A (A represents 1 ≤ multiple X<20)”.
Consider `CC(Oc1ccc2[nH]nc(-c3cnn(C4CC(N(C)C(=O)C(C)(C)N)C4)c3)c2c1)c1cccc2nccnc12` (stereo not shown) [Example 196, 2-amino-N,2-dimethyl-N-(3-(4-(5-(1-(quinoxalin-5-yl)ethoxy)-1H-indazol-3-yl)-1H-pyrazol-1-yl)cyclobutyl)propanamide], for which the IC50 is < 1 nM on FGFR3 (setting [1]) and 10 to 100 nM at FGFR1 (setting [2]). The “Selectivity (X) FGFR1/FGFR3” value on FGFR3 was “B (B represents 20 ≤ multiple X<50)”.
On the same counts, the results for `CC(Oc1ccc2[nH]nc(-c3cnn(C4CC(N(C)C(=O)C(C)(C)O)C4)c3)c2c1)c1cccc2nccnc12` (stereo not shown) [Example 197, 2-hydroxy-N,2-dimethyl-N-(3-(4-(5-(1-(quinoxalin-5-yl)ethoxy)-1H-indazol-3-yl)-1H-pyrazol-1-yl)cyclobutyl)prop anamide] are < 1 nM, 10 to 100 nM and “B (B represents 20 ≤ multiple X<50)”.
For the compound `CC(Oc1ccc2[nH]nc(-c3cnn(C4CC(N(C)S(C)(=O)=O)C4)c3)c2c1)c1cccc2nccnc12` (stereo not shown) [Example 198, N-methyl-N-(3-(4-(5-(1-(quinoxalin-5-yl)ethoxy)-1H-indazol-3-yl)-1H-pyrazol-1-yl)cyclobutyl)methanesulfonamide], the IC50 is < 1 nM on FGFR3 (setting [1]) and 10 to 100 nM at FGFR1 (setting [2]). Also, the “Selectivity (X) FGFR1/FGFR3” value at FGFR3 is recorded as “B (B represents 20 ≤ multiple X<50)”.
Consider `CC(=O)N(C)C1CC(n2cc(-c3n[nH]c4ccc(OC(C)c5cccc6nccnc56)cc34)cn2)C1` (stereo not shown) [Example 199, N-methyl-N-(3-(4-(5-(1-(quinoxalin-5-yl)ethoxy)-1H-indazol-3-yl)-1H-pyrazol-1-yl)cyclobutyl)acet amide], for which the IC50 on FGFR3 (setting [1]) is < 1 nM; on FGFR1 (setting [2]), 10 to 100 nM. The “Selectivity (X) FGFR1/FGFR3” value at FGFR3 is on record as “A (A represents 1 ≤ multiple X<20)”.
Consider `CC(Oc1ccc2[nH]nc(-c3cnn(CC4CC(=O)N(C)C4)c3)c2c1)c1cccc2nccnc12` (stereo not shown) [Example 200, 1-methyl-4-((4-(5-(1-(quinoxalin-5-yl)ethoxy)-1H-indazol-3-yl)-1H-pyrazol-1-yl)methyl)pyrrolidin-2-one], for which the values for the IC50 at FGFR3 (setting [1]) and on FGFR1 (setting [2]) were 1 to 10 nM and 10 to 100 nM, respectively. The “Selectivity (X) FGFR1/FGFR3” value at FGFR3 is recorded as “B (B represents 20 ≤ multiple X<50)”.
On to `CC(Oc1ccc2[nH]nc(-c3cnn(C4CN(C(=O)NC5CC5)C4)c3)c2c1)c1cccc2nccnc12` (stereo not shown) [Example 201, N-cyclopropyl-3-(4-(5-(1-(quinoxalin-5-yl)ethoxy)-1H-indazol-3-yl)-1H-pyrazol-1-yl)azetidine-1-carboxamide], for which the concentration for half-maximal inhibition (IC50) was < 1 nM on FGFR3 (setting [1]) and 1 to 10 nM at FGFR1 (setting [2]). Also, the “Selectivity (X) FGFR1/FGFR3” value at FGFR3 was “A (A represents 1 ≤ multiple X<20)”.
On the same counts, the results for `CC(Oc1ccc2[nH]nc(-c3cnn(C4CC(S(C)(=N)=O)C4)c3)c2c1)c1cccc2nccnc12` (stereo not shown) [Example 202, imino(methyl)(3-(4-(5-(1-(quinoxalin-5-yl)ethoxy)-1H-indazol-3-yl)-1H-pyrazol-1-yl)cyclobutyl)-sulfanone] are < 1 nM, 1 to 10 nM and “A (A represents 1 ≤ multiple X<20)”.
As for `CC(Oc1ccc2[nH]nc(-c3cnn(C4CN(C(=O)C5(N)CC5)C4)c3)c2c1)c1cccc2nccnc12` (stereo not shown) [Example 205, (1-aminocyclopropy 1)(3-(4-(5-(1-(quinoxalin-5-yl)ethoxy)-1H-indazol-3-yl)-1H-pyrazol-1-yl)azetidin-1-yl)methanone], the figures for the half-inhibitory concentration (IC50) at FGFR3 (setting [1]) and on FGFR1 (setting [2]) were < 1 nM and 1 to 10 nM, respectively. Moreover, the “Selectivity (X) FGFR1/FGFR3” value on FGFR3 is recorded as “B (B represents 20 ≤ multiple X<50)”.
On to `CC(Oc1ccc2[nH]nc(-c3cnn(C4CN(C(=O)C(C)(C)O)C4)c3)c2c1)c1cc(Cl)cc2ncccc12` (stereo not shown) [Example 206, 1-(3-(4-(5-(1-(7-chloroquinolin-5-yl)ethoxy)-1H-indazol-3-yl)-1H-pyrazol-1-yl)azetidin-1-yl)-2-hydroxy-2-methylpropan-1-one], for which the figures for the IC50 on FGFR3 (setting [1]) and at FGFR1 (setting [2]) were 1 to 10 nM and 10 to 100 nM, respectively. Further, at FGFR3, the “Selectivity (X) FGFR1/FGFR3” value is reported as “C (C represents 50 ≤ multiple X<100)”.
On to `CC(Oc1ccc2[nH]nc(-c3cnn(C4CN(C(=O)CO)C4)c3)c2c1)c1cc(Cl)cc2nccnc12` (stereo not shown) [Example 207, 1-(3-(4-(5-(1-(7-chloroquinoxalin-5-yl)ethoxy)-1H-indazol-3-yl)-1H-pyrazol-1-yl)azetidin-1-yl)-2-hydroxyethan-1-one], for which the results for the IC50 at FGFR3 (setting [1]) and on FGFR1 (setting [2]) were < 1 nM and 10 to 100 nM, respectively. Moreover, the “Selectivity (X) FGFR1/FGFR3” value on FGFR3 is reported as “B (B represents 20 ≤ multiple X<50)”.
For the compound `CC(Oc1ccc2[nH]nc(-c3cnn(C4CN(C(=O)C(C)(C)N)C4)c3)c2c1)c1c(C(F)F)ccc2ncccc12` (stereo not shown) [Example 208, 2-amino-1-(3-(4-(5-(1-(6-(difluoromethyl)quinoline-5-yl)ethoxy)-1H-indazol-3-yl)-1H-pyrazol-1-yl)azetidin-1-yl)-2-methylpropan-1-one], the values for the IC50 at FGFR3 (setting [1]) and on FGFR1 (setting [2]) were < 1 nM and 10 to 100 nM, respectively. In addition, the “Selectivity (X) FGFR1/FGFR3” value on FGFR3 is recorded as “B (B represents 20 ≤ multiple X<50)”.
